Test results taken from patent US20220031800A1, “PEPTIDES FOR TREATING NON-EXUDATIVE MACULAR DEGENERATION AND OTHER DISORDERS OF THE EYE” (Allegro Pharmaceuticals, LLC, priority 2019, published 2022).
Square brackets hold non-standard residues; d marks the D form. Peptide text beside a SMILES is read from it. Cya = N[C@@H](CS(=O)(=O)O)C(=O)O

Experiments:
[1] = test system: study eye of subjects with intermediate non-exudative AMD; assay: SD-OCT Analysis 1 (thickness and volume of retinal layers, EZ defect area, GA); format: in vivo, human
Experimental: Numerous study assessments were conducted at various time points throughout the study. Included among these study assessments were; refractive eye examinations, determinations of BCVA AND low-luminance BCVA, Lanthony D-15 color vision test, measurement of intraocular pressure (IOP), Indirect ophthalmoscopy/dilated fundus examinations and spectral-domain optical coherence tomography (SD-OCT). Also, blood and saliva samples were obtained from each subject for genetic analysis. The above-listed study assessments were performed at the time points indicated in Table 1, below: The OCT scans were analyzed by two (2) unrelated experts. The mean thickness and mean volume of retinal subfields and layer segments were analyzed at screening (pre-treatment) and at Week 12 for Group 1 subjects and at Week 32 for Group 2 subjects. In addition to the quantitative analysis of OCT images, a qualitative assessment of the OCT images at baseline (pre-treatment) was performed to identify GA anywhere in the retina, in the fovea (1-mm central subfield), and in the foveal center. Quantitative analysis of the OCT images was also performed to measure changes in anatomical measurements over time.

[2] = test system: human retinal Müller cells (MIO-M1); assay: MTT cell viability of human Müller cells (MIO-M1); format: cell-based; conditions: 24 hours, normalized to untreated control as 100%
Experimental: Purpose: To determine the effects of risuteganib and anti-VEGF drugs on the cell viability of cultured human retinal Müller cells (MIO-M1).
Methods: The immortalized human retinal Müller cell line (MIO-M1) was obtained from the Department of Cell Biology of the University College, London. Cells were cultured in Dulbecco's Modified Eagle's Medium (DMEM) and plated in 96-well plates for 24 hours before treatment with 0.5×, 1× or 2× concentrations of 1 mg/50 μL risuteganib, or 1× of ranibizumab, bevacizumab or aflibercept. Dosage was based on clinical dose of each compound. The experiments were repeated 3 times with 7-8 replicates each. After 24 hours of drug treatment, MTT NAD(P)H-dependent colorimetric assay was used to assess the number of viable cells present in the cultures. Absorbance ratios were normalized to untreated control as 100%. Statistical analysis was performed in GraphPad Prism software program.

[3] = baseline to Week 32, nonresponder eyes n = 12
[4] = baseline to Week 32, responder eyes n = 10
[5] = baseline to Week 32, responder vs nonresponder eyes
[6] = baseline to Week 32, risuteganib arm n = 22
[7] = risuteganib arm (Week 32) vs sham arm (Week 12)

C[C@@H](O)[C@H](NC(=O)[C@H](CS(=O)(=O)O)NC(=O)CNC(=O)[C@H](CCCNC(=N)N)NC(=O)CN)C(=O)N1CCC[C@H]1C(=O)O [risuteganib, Glycyl-L-arginylglycyl-3-sulfo-L-alanyl-L-threonyl-L-proline] (H-GRG[Cya]TP-OH)
Change in EZ defect area [1, 3]: 0.014 mm^2 | Mean change in mean thickness: Inner retina, central subfield [1, 3]: −2.250 μm | Mean change in mean thickness: Inner retina, foveal center [1, 3]: 9.917 μm | Mean change in mean thickness: Outer retina, central subfield [1, 3]: −5.417 μm | Mean change in mean thickness: Outer retina, foveal center [1, 3]: −17.833 μm | Mean change in mean thickness: Photoreceptor, central subfield [1, 3]: −1.333 μm | Mean change in mean thickness: Photoreceptor, foveal center [1, 3]: 3.833 μm | Mean change in mean thickness: RPEDC, central subfield [1, 3]: 1.083 μm | Mean change in mean thickness: RPEDC, foveal center [1, 3]: −2.250 μm | Mean change in total volume: Inner retina, central subfield [1, 3]: −0.002 mm^3 | Mean change in total volume: Outer retina, central subfield [1, 3]: −0.004 mm^3 | Mean change in total volume: Photoreceptor, central subfield [1, 3]: −0.001 mm^3 | Mean change in total volume: RPEDC, central subfield [1, 3]: 0.001 mm^3 | Change in EZ defect area [1, 4]: 0.020 mm^2 | Mean change in mean thickness: Inner retina, central subfield [1, 4]: 5.200 μm | Mean change in mean thickness: Inner retina, foveal center [1, 4]: 8.400 μm | Mean change in mean thickness: Outer retina, central subfield [1, 4]: −2.400 μm | Mean change in mean thickness: Outer retina, foveal center [1, 4]: −8.000 μm | Mean change in mean thickness: Photoreceptor, central subfield [1, 4]: −1.000 μm | Mean change in mean thickness: Photoreceptor, foveal center [1, 4]: 3.100 μm | Mean change in mean thickness: RPEDC, central subfield [1, 4]: −9.800 μm | Mean change in mean thickness: RPEDC, foveal center [1, 4]: −8.100 μm | Mean change in total volume: Inner retina, central subfield [1, 4]: 0.004 mm^3 | Mean change in total volume: Outer retina, central subfield [1, 4]: −0.002 mm^3 | Mean change in total volume: Photoreceptor, central subfield [1, 4]: −0.001 mm^3 | Mean change in total volume: RPEDC, central subfield [1, 4]: −0.008 mm^3 | Change in EZ defect area, Difference [1, 5]: 0.006 mm^2 | Mean change in mean thickness: Inner retina, central subfield, Difference [1, 5]: 7.450 μm | Mean change in mean thickness: Inner retina, foveal center, Difference [1, 5]: −1.517 μm | Mean change in mean thickness: Outer retina, central subfield, Difference [1, 5]: 3.017 μm | Mean change in mean thickness: Outer retina, foveal center, Difference [1, 5]: 9.833 μm | Mean change in mean thickness: Photoreceptor, central subfield, Difference [1, 5]: 0.333 μm | Mean change in mean thickness: Photoreceptor, foveal center, Difference [1, 5]: −0.733 μm | Mean change in mean thickness: RPEDC, central subfield, Difference [1, 5]: −10.883 μm | Mean change in mean thickness: RPEDC, foveal center, Difference [1, 5]: −5.850 μm | Mean change in total volume: Inner retina, central subfield, Difference [1, 5]: 0.006 mm^3 | Mean change in total volume: Outer retina, central subfield, Difference [1, 5]: 0.003 mm^3 | Mean change in total volume: Photoreceptor, central subfield, Difference [1, 5]: 0.000 mm^3 | Mean change in total volume: RPEDC, central subfield, Difference [1, 5]: −0.009 mm^3 | Change in EZ defect area [1, 6]: 0.015 mm^2 | Mean change in mean thickness: Inner retina, central subfield [1, 6]: 1.565 μm | Mean change in mean thickness: Inner retina, foveal center [1, 6]: 6.696 μm | Mean change in mean thickness: Inner retina, inferior subfield [1, 6]: −0.065 μm | Mean change in mean thickness: Inner retina, nasal subfield [1, 6]: −0.783 μm | Mean change in mean thickness: Inner retina, superior subfield [1, 6]: −3.022 μm | Mean change in mean thickness: Inner retina, temporal subfield [1, 6]: 0.217 μm | Mean change in mean thickness: Outer retina, central subfield [1, 6]: −3.978 μm | Mean change in mean thickness: Outer retina, foveal center [1, 6]: −9.543 μm | Mean change in mean thickness: Outer retina, inferior subfield [1, 6]: −2.457 μm | Mean change in mean thickness: Outer retina, nasal subfield [1, 6]: −1.196 μm | Mean change in mean thickness: Outer retina, superior subfield [1, 6]: −0.065 μm | Mean change in mean thickness: Outer retina, temporal subfield [1, 6]: −2.283 μm | Mean change in mean thickness: Photoreceptor, central subfield [1, 6]: −1.087 μm | Mean change in mean thickness: Photoreceptor, foveal center [1, 6]: 1.717 μm | Mean change in mean thickness: Photoreceptor, inferior subfield [1, 6]: −0.239 μm | Mean change in mean thickness: Photoreceptor, nasal subfield [1, 6]: −0.087 μm | Mean change in mean thickness: Photoreceptor, superior subfield [1, 6]: 0.130 μm | Mean change in mean thickness: Photoreceptor, temporal subfield [1, 6]: −0.152 μm | Mean change in mean thickness: RPEDC, central subfield [1, 6]: −1.500 μm | Mean change in mean thickness: RPEDC, foveal center [1, 6]: −1.652 μm | Mean change in mean thickness: RPEDC, inferior subfield [1, 6]: 0.457 μm | Mean change in mean thickness: RPEDC, nasal subfield [1, 6]: 0.739 μm | Mean change in mean thickness: RPEDC, superior subfield [1, 6]: 1.739 μm | Mean change in mean thickness: RPEDC, temporal subfield [1, 6]: 0.870 μm | Mean change in total volume: Inner retina, central subfield [1, 6]: 0.001 mm^3 | Mean change in total volume: Inner retina, inferior subfield [1, 6]: 0.000 mm^3 | Mean change in total volume: Inner retina, nasal subfield [1, 6]: −0.001 mm^3 | Mean change in total volume: Inner retina, superior subfield [1, 6]: −0.005 mm^3 | Mean change in total volume: Inner retina, temporal subfield [1, 6]: 0.000 mm^3 | Mean change in total volume: Outer retina, central subfield [1, 6]: −0.003 mm^3 | Mean change in total volume: Outer retina, inferior subfield [1, 6]: −0.004 mm^3 | Mean change in total volume: Outer retina, nasal subfield [1, 6]: −0.002 mm^3 | Mean change in total volume: Outer retina, superior subfield [1, 6]: −0.000 mm^3 | Mean change in total volume: Outer retina, temporal subfield [1, 6]: −0.004 mm^3 | Mean change in total volume: Photoreceptor, central subfield [1, 6]: −0.001 mm^3 | Mean change in total volume: Photoreceptor, inferior subfield [1, 6]: −0.001 mm^3 | Mean change in total volume: Photoreceptor, nasal subfield [1, 6]: −0.000 mm^3 | Mean change in total volume: Photoreceptor, superior subfield [1, 6]: 0.000 mm^3 | Mean change in total volume: Photoreceptor, temporal subfield [1, 6]: −0.000 mm^3 | Mean change in total volume: RPEDC, central subfield [1, 6]: −0.001 mm^3 | Mean change in total volume: RPEDC, inferior subfield [1, 6]: 0.001 mm^3 | Mean change in total volume: RPEDC, nasal subfield [1, 6]: 0.001 mm^3 | Mean change in total volume: RPEDC, superior subfield [1, 6]: 0.003 mm^3 | Mean change in total volume: RPEDC, temporal subfield [1, 6]: 0.001 mm^3 | Change in EZ defect area, Difference [1, 7]: 0.025 mm^2 | Mean change in mean thickness: Inner retina, central subfield, Difference [1, 7]: 0.690 μm | Mean change in mean thickness: Inner retina, foveal center, Difference [1, 7]: 15.404 μm | Mean change in mean thickness: Inner retina, inferior subfield, Difference [1, 7]: −1.607 μm | Mean change in mean thickness: Inner retina, nasal subfield, Difference [1, 7]: −0.949 μm | Mean change in mean thickness: Inner retina, superior subfield, Difference [1, 7]: −4.188 μm | Mean change in mean thickness: Inner retina, temporal subfield, Difference [1, 7]: 0.092 μm | Mean change in mean thickness: Outer retina, central subfield, Difference [1, 7]: −3.812 μm | Mean change in mean thickness: Outer retina, foveal center, Difference [1, 7]: −14.794 μm | Mean change in mean thickness: Outer retina, inferior subfield, Difference [1, 7]: 0.460 μm | Mean change in mean thickness: Outer retina, nasal subfield, Difference [1, 7]: 1.388 μm | Mean change in mean thickness: Outer retina, superior subfield, Difference [1, 7]: 0.768 μm | Mean change in mean thickness: Outer retina, temporal subfield, Difference [1, 7]: −1.158 μm | Mean change in mean thickness: Photoreceptor, central subfield, Difference [1, 7]: −2.545 μm | Mean change in mean thickness: Photoreceptor, foveal center, Difference [1, 7]: 1.342 μm | Mean change in mean thickness: Photoreceptor, inferior subfield, Difference [1, 7]: −0.781 μm | Mean change in mean thickness: Photoreceptor, nasal subfield, Difference [1, 7]: −0.379 μm | Mean change in mean thickness: Photoreceptor, superior subfield, Difference [1, 7]: −0.161 μm | Mean change in mean thickness: Photoreceptor, temporal subfield, Difference [1, 7]: −0.694 μm | Mean change in mean thickness: RPEDC, central subfield, Difference [1, 7]: −0.167 μm | Mean change in mean thickness: RPEDC, foveal center, Difference [1, 7]: −1.402 μm | Mean change in mean thickness: RPEDC, inferior subfield, Difference [1, 7]: 1.623 μm | Mean change in mean thickness: RPEDC, nasal subfield, Difference [1, 7]: −0.511 μm | Mean change in mean thickness: RPEDC, superior subfield, Difference [1, 7]: 2.739 μm | Mean change in mean thickness: RPEDC, temporal subfield, Difference [1, 7]: 2.536 μm | Mean change in total volume: Inner retina, central subfield, Difference [1, 7]: 0.001 mm^3 | Mean change in total volume: Inner retina, inferior subfield, Difference [1, 7]: −0.002 mm^3 | Mean change in total volume: Inner retina, nasal subfield, Difference [1, 7]: −0.002 mm^3 | Mean change in total volume: Inner retina, superior subfield, Difference [1, 7]: −0.007 mm^3 | Mean change in total volume: Inner retina, temporal subfield, Difference [1, 7]: 0.000 mm^3 | Mean change in total volume: Outer retina, central subfield, Difference [1, 7]: −0.003 mm^3 | Mean change in total volume: Outer retina, inferior subfield, Difference [1, 7]: 0.001 mm^3 | Mean change in total volume: Outer retina, nasal subfield, Difference [1, 7]: 0.002 mm^3 | Mean change in total volume: Outer retina, superior subfield, Difference [1, 7]: 0.001 mm^3 | Mean change in total volume: Outer retina, temporal subfield, Difference [1, 7]: −0.002 mm^3 | Mean change in total volume: Photoreceptor, central subfield, Difference [1, 7]: −0.002 mm^3 | Mean change in total volume: Photoreceptor, inferior subfield, Difference [1, 7]: −0.002 mm^3 | Mean change in total volume: Photoreceptor, nasal subfield, Difference [1, 7]: −0.001 mm^3 | Mean change in total volume: Photoreceptor, superior subfield, Difference [1, 7]: −0.000 mm^3 | Mean change in total volume: Photoreceptor, temporal subfield, Difference [1, 7]: −0.001 mm^3 | Mean change in total volume: RPEDC, central subfield, Difference [1, 7]: −0.000 mm^3 | Mean change in total volume: RPEDC, inferior subfield, Difference [1, 7]: 0.002 mm^3 | Mean change in total volume: RPEDC, nasal subfield, Difference [1, 7]: −0.001 mm^3 | Mean change in total volume: RPEDC, superior subfield, Difference [1, 7]: 0.005 mm^3 | Mean change in total volume: RPEDC, temporal subfield, Difference [1, 7]: 0.004 mm^3 | Cell viability (MTT) ([2]; 0.5× of 1 mg/50 μL): 111.3±2.189 | Cell viability (MTT) ([2]; 1× of 1 mg/50 μL): 113.5±13.5 | Cell viability (MTT) ([2]; 2× of 1 mg/50 μL): 100.3±7.8
